According to patent publication US20250017964A1, “ENGINEERING OR INDUCING PDGF AND/OR PDGFR SIGNALING TO ENHANCE NK CELL THERAPY” (City of Hope, priority 2021, published 2025):

Experiments:
murine NK cells = assay: PDGFRβ expression in murine splenic NK cells, flow cytometry; format: cell-based, mouse
Method: FIGS. 7A-7F. […] Data shown are representative histograms and mean fluorescence intensity (MFI) of PDGFRα. […] Expression levels of PDGFRβ were examined by flow cytometry (n=6). […] Data shown are the percentages of PDGFRβ^+ NK cells among total NK cells (n=5). […] Data shown are representative histograms with MFI of PDGFRβ expression. (F) Expression levels of PDGFRβ on NK cells from IL-15 transgenic (Tg) mice were determined by flow cytometry. Data shown are representative histograms. Data represent three independent experiments.
Mouse NK cells were isolated from the spleen of C57BL/6J or IL-15 transgenic mice, using the EasySep Mouse NK Cell Isolation Kit ([…] Technologies) as previously described (11).
Cells were stained with the indicated cell-surface markers and/or fixed/permeabilized using a Fixation/Permeabilization Kit (eBioscience). For intracellular staining of IFN-γ and PDGF-D, 5 μg/ml Brefeldin A (BioLegend) was added for 4 h before cell harvest. Intracellular staining of Ki67 was performed by fixing and permeabilizing with the Foxp3/Transcription Factor Staining Kit (eBioscience). […] Data were analyzed using NovoExpress software (Agilent Technologies).

[1] = system: NOD/SCID/IL-2rg (NSG) mice; assay: PDGF-D injection after NK cell adoptive transfer into NSG mice, annexin V and Ki-67; conditions: in vivo, PDGF-D 1 μg per mouse i.v. daily for 3 days
Method: FIGS. 6A-6M. IL-15 maintains NK cell survival through a PDGF-D-PDGFRβ autocrine pathway. (A) 1×10^5 primary NK cells were cultured in vitro for 7 days in the presence of IL-15 (10 ng/ml) and PDGF-D (50 ng/ml). Cells were counted on days 3, 5, and 7 (n=3). (B) 1×10^5 primary NK cells were cultured in vitro for 7 days in the presence of IL-15 (10 ng/ml) and anti-PDGF-D (10 βg/ml) or control IgG (10 μg/ml). Cells were counted on days 3, 5, and 7 (n=3). […] The cells were counted by trypan exclusion assay on days 3, 5, and 7 (n=3). (D) 1×10^5 primary NK cells were cultured in vitro for 7 days in the presence of IL-15 (10 ng/ml) and PDGF-D (50 ng/ml) as well as anti-PDGFRβ (10 μg/ml). Cells were counted by trypan exclusion assay on days 3, 5, and 7 (n=3). (E) 1×10^5 primary NK cells were cultured in vitro for 7 days in the presence of IL-15 (10 ng/ml) and PDGF-D (50 ng/ml) as well as anti-NKp44 (10 μg/ml). Cells were counted by trypan exclusion assay on days 3, 5, and 7 (n=3). (F-I) Primary NK cells were cultured in the presence of IL-15 (10 ng/ml) and PDGF-D (50 ng/ml) as well as anti-NKp44 (10 μg/ml) or anti-PDGFRβ (10 Kg/ml) for 48 h. The cultured NK cells were then harvested for immunoblotting to determine protein levels of BCL-2, BCL-XL, and MCL-1 (n=3). […] Cell apoptosis and proliferation were analyzed by annexin V staining (J) and Ki-67 staining (K), respectively. […]

| Substance | PDGFRβ on NK cells from IL-15 transgenic mice (murine NK cells; long-term IL-15 stimulation, IL-15 transgenic mice) | PDGFRβ expression in murine NK cells (murine NK cells; splenic NK cells of C57BL/6 mice, mouse cytokines 10 ng/ml, 24 h) | NK cell proliferation (Ki67) [1] | apoptosis of PDGFRβ^+ NK cells (annexin V) ([1]; peripheral blood) |
| --- | --- | --- | --- | --- |
| IL-15: recombinant human IL-15 (200-15); recombinant murine IL-15 in the mouse NK cell test | could not detect any PDGFRβ | did not express PDGFRβ |  |  |
| PDGF-D: recombinant human PDGF-DD (1159-SB-025), R&D Systems |  |  | did not affect NK cell proliferation | inhibited apoptosis |
